Experiments:
[1] = pharmacokinetics of 4-hydroxy tamoxifen gel in healthy premenopausal women (Example 3); type: in vivo, human; settings: for Plasma concentration of 4-hydroxy tamoxifen, Mean ± SD / T(1stC < LOQ), first timepoint at which the plasma concentration was below the limit of quantification, Mean ± SD / Plasma concentration of 4-hydroxy tamoxifen, Range / AUC0-24, Mean ± SD / Cav = AUC0-24/24, Mean ± SD / Cmax, Mean ± SD / t1/2, Range / tmax, Mean ± SD: gel 57 mg/100 g; for T(1stC < LOQ), first timepoint at which the plasma concentration was below the limit of quantification, Mean ± SD: after last administration; for AUC0-24, Mean ± SD / Cav = AUC0-24/24, Mean ± SD / Cmax, Mean ± SD / t1/2, Range / tmax, Mean ± SD: last administration, day 25 of second cycle
Method: Each participant applied the gel daily for the duration of two menstrual cycles.
At the end of a menstrual cycle, each patient received a single dose, after which serial blood samples were collected at 0, 0.5, 1, 1.5, 2, 3, 4, 6, 12, 18, 24, 36, 48, and 72 hours.
On the first day of the following menstruation, treatment, which consisted of daily application of the gel over two menstrual cycles, began. Blood samples were collected 24 hours following the morning application of gel on days 7, 20 and 25 of the first and second cycles. On the last day of administration, day 25 of the second menstrual cycle, serial blood samples were collected prior to application and at 0.5, 1, 1.5, 2, 3, 4, 6, 12, 18, 24, 36, 48, and 72 hours after application of the gel.

[2] = in vivo; cited from earlier work
[3] = human, in vivo
Method: The patients received [^3H]-labeled drug applied directly on the affected breasts at specified intervals ranging from 12 hours to 7 days before surgery to excise diseased tissue. Breast tissue from three regions: the tumor, tissue immediately surrounding the tumor, and normal tissue, was excised and immediately frozen in liquid nitrogen. Additionally, plasma and urine samples were obtained at scheduled intervals and frozen until analysis.

estrone sulphatase = target: T1, estrone sulphatase (Homo sapiens, UniProt P08842); settings: mammary cancer cell lines; cited from earlier work
T1 construct: estrone sulphatase activity in mammary cancer cell lines; endogenous in cells
T1 sequence (P08842 22-583): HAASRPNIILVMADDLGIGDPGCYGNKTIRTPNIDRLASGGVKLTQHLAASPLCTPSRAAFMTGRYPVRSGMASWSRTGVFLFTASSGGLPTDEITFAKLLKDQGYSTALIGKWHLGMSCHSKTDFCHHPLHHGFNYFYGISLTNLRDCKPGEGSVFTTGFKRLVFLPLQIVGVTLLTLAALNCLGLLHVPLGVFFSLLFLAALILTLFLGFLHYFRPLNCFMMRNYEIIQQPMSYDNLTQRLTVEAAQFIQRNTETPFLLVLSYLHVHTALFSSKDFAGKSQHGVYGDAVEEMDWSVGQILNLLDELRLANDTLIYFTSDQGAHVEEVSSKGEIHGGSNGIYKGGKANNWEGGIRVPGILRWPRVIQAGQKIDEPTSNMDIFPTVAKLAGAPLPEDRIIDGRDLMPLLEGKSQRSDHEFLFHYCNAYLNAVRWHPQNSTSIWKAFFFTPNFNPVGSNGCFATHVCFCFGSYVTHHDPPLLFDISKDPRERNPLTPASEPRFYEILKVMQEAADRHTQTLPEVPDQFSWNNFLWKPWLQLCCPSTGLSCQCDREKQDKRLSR

rat liver = settings: in vivo; cited from earlier work
estrogen receptors = settings: in vitro; cited from earlier work

CCC(=C(c1ccc(O)cc1)c1ccc(OCCN(C)C)cc1)c1ccccc1 [4-hydroxy tamoxifen, 1-[4-(2-N-dimethylaminoethoxy)phenyl]-1-(4-hydroxyphenyl)-2-phenylbut-1-ene]
Plasma concentration of 4-hydroxy tamoxifen, Mean ± SD ([1]; 1 mg/day, Second cycle Day 25, 0.5 hr after application): 0.0259 ± 0.0187 ng/mL
Plasma concentration of 4-hydroxy tamoxifen, Mean ± SD ([1]; 1 mg/day, Second cycle Day 25, 1 hr after application): 0.0287 ± 0.0195 ng/mL
Plasma concentration of 4-hydroxy tamoxifen, Mean ± SD ([1]; 1 mg/day, Second cycle Day 25, 1.5 hr after application): 0.0256 ± 0.0178 ng/mL
Plasma concentration of 4-hydroxy tamoxifen, Mean ± SD ([1]; 1 mg/day, Second cycle Day 25, 2 hr after application): 0.0251 ± 0.018 ng/mL
Plasma concentration of 4-hydroxy tamoxifen, Mean ± SD ([1]; 1 mg/day, Second cycle Day 25, 3 hr after application): 0.0248 ± 0.0205 ng/mL
Plasma concentration of 4-hydroxy tamoxifen, Mean ± SD ([1]; 1 mg/day, Second cycle Day 25, 4 hr after application): 0.0268 ± 0.0233 ng/mL
Plasma concentration of 4-hydroxy tamoxifen, Mean ± SD ([1]; 1 mg/day, Second cycle Day 25, 6 hr after application): 0.025 ± 0.0182 ng/mL
Plasma concentration of 4-hydroxy tamoxifen, Mean ± SD ([1]; 1 mg/day, Second cycle Day 25, 12 hr after application): 0.0283 ± 0.0229 ng/mL
Plasma concentration of 4-hydroxy tamoxifen, Mean ± SD ([1]; 1 mg/day, Second cycle Day 25, 18 hr after application): 0.0234 ± 0.0174 ng/mL
Plasma concentration of 4-hydroxy tamoxifen, Mean ± SD ([1]; 1 mg/day, Second cycle Day 26, 24 hr after last application): 0.026 ± 0.0196 ng/mL
Plasma concentration of 4-hydroxy tamoxifen, Mean ± SD ([1]; 1 mg/day, Second cycle Day 26, 36 hr after last application): 0.0257 ± 0.0184 ng/mL
Plasma concentration of 4-hydroxy tamoxifen, Mean ± SD ([1]; 1 mg/day, Second cycle Day 27, 48 hr after last application): 0.022 ± 0.016 ng/mL
Plasma concentration of 4-hydroxy tamoxifen, Mean ± SD ([1]; 1 mg/day, Second cycle Day 28, 72 hr after last application): 0.0189 ± 0.0124 ng/mL
T(1stC < LOQ), first timepoint at which the plasma concentration was below the limit of quantification, Mean ± SD ([1]; 1 mg/day): 236 ± 72 h
Plasma concentration of 4-hydroxy tamoxifen, Mean ± SD ([1]; 1 mg/day, after the second cycle, +5 days): 0.0114 ± 0.0082 ng/mL
Plasma concentration of 4-hydroxy tamoxifen, Range ([1]; 1 mg/day, after the second cycle, +8 days): (0-14.8) pg/mL
AUC0-24, Mean ± SD ([1]; 1 mg/day): 0.619 ± 0.466 ng·h/mL
Cav = AUC0-24/24, Mean ± SD ([1]; 1 mg/day): 0.0258 ± 0.0194 ng/mL
Cmax, Mean ± SD ([1]; 1 mg/day): 0.0351 ± 0.0224 ng/mL
t1/2, Range ([1]; 1 mg/day): (58-118) hr
tmax, Mean ± SD ([1]; 1 mg/day): 12.8 ± 14.9 h
Plasma concentration of 4-hydroxy tamoxifen, Range ([1]; 2 mg/day, First cycle Day 1, 0 hr): (0-0) pg/mL
Plasma concentration of 4-hydroxy tamoxifen, Mean ± SD ([1]; 2 mg/day, First cycle Day 7, 24 hr after application): 0.0269 ± 0.0182 ng/mL
Plasma concentration of 4-hydroxy tamoxifen, Mean ± SD ([1]; 2 mg/day, First cycle Day 20, 24 hr after application): 0.044 ± 0.0292 ng/mL
Plasma concentration of 4-hydroxy tamoxifen, Mean ± SD ([1]; 2 mg/day, First cycle Day 25, 24 hr after application): 0.0454 ± 0.031 ng/mL
Plasma concentration of 4-hydroxy tamoxifen, Mean ± SD ([1]; 2 mg/day, Second cycle Day 7, 24 hr after application): 0.0422 ± 0.0248 ng/mL
Plasma concentration of 4-hydroxy tamoxifen, Mean ± SD ([1]; 2 mg/day, Second cycle Day 20, 24 hr after application): 0.0389 ± 0.0271 ng/mL
Plasma concentration of 4-hydroxy tamoxifen, Mean ± SD ([1]; 2 mg/day, Second cycle Day 25, 0 hr (24 hours after Day 24 application, prior to final application)): 0.0432 ± 0.0277 ng/mL
Plasma concentration of 4-hydroxy tamoxifen, Mean ± SD ([1]; 2 mg/day, Second cycle Day 25, 0.5 hr after application): 0.0445 ± 0.0299 ng/mL
Plasma concentration of 4-hydroxy tamoxifen, Mean ± SD ([1]; 2 mg/day, Second cycle Day 25, 1 hr after application): 0.0405 ± 0.0251 ng/mL
Plasma concentration of 4-hydroxy tamoxifen, Mean ± SD ([1]; 2 mg/day, Second cycle Day 25, 1.5 hr after application): 0.0368 ± 0.0211 ng/mL
Plasma concentration of 4-hydroxy tamoxifen, Mean ± SD ([1]; 2 mg/day, Second cycle Day 25, 2 hr after application): 0.0368 ± 0.0216 ng/mL
Plasma concentration of 4-hydroxy tamoxifen, Mean ± SD ([1]; 2 mg/day, Second cycle Day 25, 3 hr after application): 0.0361 ± 0.0206 ng/mL
Plasma concentration of 4-hydroxy tamoxifen, Mean ± SD ([1]; 2 mg/day, Second cycle Day 25, 4 hr after application): 0.0381 ± 0.0212 ng/mL
Plasma concentration of 4-hydroxy tamoxifen, Mean ± SD ([1]; 2 mg/day, Second cycle Day 25, 6 hr after application): 0.041 ± 0.0291 ng/mL
Plasma concentration of 4-hydroxy tamoxifen, Mean ± SD ([1]; 2 mg/day, Second cycle Day 25, 12 hr after application): 0.0451 ± 0.0306 ng/mL
Plasma concentration of 4-hydroxy tamoxifen, Mean ± SD ([1]; 2 mg/day, Second cycle Day 25, 18 hr after application): 0.0398 ± 0.0255 ng/mL
Plasma concentration of 4-hydroxy tamoxifen, Mean ± SD ([1]; 2 mg/day, Second cycle Day 26, 24 hr after last application): 0.044 ± 0.033 ng/mL
Plasma concentration of 4-hydroxy tamoxifen, Mean ± SD ([1]; 2 mg/day, Second cycle Day 26, 36 hr after last application): 0.0421 ± 0.0315 ng/mL
Plasma concentration of 4-hydroxy tamoxifen, Mean ± SD ([1]; 2 mg/day, Second cycle Day 27, 48 hr after last application): 0.0381 ± 0.0253 ng/mL
Plasma concentration of 4-hydroxy tamoxifen, Mean ± SD ([1]; 2 mg/day, Second cycle Day 28, 72 hr after last application): 0.0332 ± 0.0222 ng/mL
T(1stC < LOQ), first timepoint at which the plasma concentration was below the limit of quantification, Mean ± SD ([1]; 2 mg/day): 326 ± 97 h
Plasma concentration of 4-hydroxy tamoxifen, Mean ± SD ([1]; 2 mg/day, after the second cycle, +5 days): 0.0204 ± 0.0173 ng/mL
Plasma concentration of 4-hydroxy tamoxifen, Mean ± SD ([1]; 2 mg/day, after the second cycle, +8 days): 0.0108 ± 0.0134 ng/mL
Plasma concentration of 4-hydroxy tamoxifen, Range ([1]; 2 mg/day, after the second cycle, +12 days): (0-30.4) pg/mL
AUC0-24, Mean ± SD ([1]; 2 mg/day): 0.998 ± 0.653 ng·h/mL
Cav = AUC0-24/24, Mean ± SD ([1]; 2 mg/day): 0.0416 ± 0.0272 ng/mL
Cmax, Mean ± SD ([1]; 2 mg/day): 0.0516 ± 0.0317 ng/mL
t1/2, Range ([1]; 2 mg/day): (49-101) hr
tmax, Mean ± SD ([1]; 2 mg/day): 11.8 ± 12.3 h
plasma concentrations after the last gel application ([1]; 72 hours after the last gel application): remained detectable
plasma concentrations of 4-hydroxy tamoxifen after a single dose ([1]; single 0.5 mg dose): did not produce detectable plasma concentrations
patients with detectable plasma concentrations (>5 pg/mL) ([1]; single dose of 1 mg): 6 of 12
plasma concentrations of 4-hydroxy tamoxifen compared with typical estradiol concentrations ([1]; topical application, 0.5-2 mg/day): < 0.08 ng/mL
breast tissue concentration by site of application [2]: concentrated at higher amounts in breast tissue when the gel was applied directly to the breasts
metabolism in cytosolic and nuclear fractions of breast tissue [3]: remained unmetabolized except for limited isomerization from the Z to the E form
retention in the breast [3]: approximately 4 days
subcellular distribution in breast tissue [3]: concentrated predominantly in the cytosolic and nuclear fractions of breast tissue
inhibitory effect on estrone sulphatase activity (estrone sulphatase): significant inhibitory effect
rat liver carcinogenicity (rat liver): not
potency versus tamoxifen, as measured by binding affinity to estrogen receptors (estrogen receptors): more potency than tamoxifen

— patent US8048927B2 (Besins Healthcare Luxembourg, priority 2004, dated 2011)
